This note sets out measurements from patent US9796700B2 (Celgene CAR LLC, priority 2013, dated 2017).

SMILES strings stand for the structures.

Erk1, sequence (P27361 whole entry, looked up): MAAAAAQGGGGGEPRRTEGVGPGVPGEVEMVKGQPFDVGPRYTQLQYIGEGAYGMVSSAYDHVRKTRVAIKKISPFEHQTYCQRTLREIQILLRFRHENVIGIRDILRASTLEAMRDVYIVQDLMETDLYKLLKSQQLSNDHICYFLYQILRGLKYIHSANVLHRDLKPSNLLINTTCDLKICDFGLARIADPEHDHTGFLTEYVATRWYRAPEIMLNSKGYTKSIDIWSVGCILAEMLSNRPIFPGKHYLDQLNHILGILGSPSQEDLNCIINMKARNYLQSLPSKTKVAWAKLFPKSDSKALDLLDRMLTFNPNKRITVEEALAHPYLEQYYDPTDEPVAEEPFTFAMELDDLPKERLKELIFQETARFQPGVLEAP

This test has as its target Erk1 (Homo sapiens (Human), UniProt P27361). In words: Protein Mass Modification Assay (intact protein MALDI). It is filed as binding. An outline of the steps:
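Percent covalent modification comes from the intact-protein MALDI centroid mass shift, treated versus control, divided by compound MW. Before analysis, human Erk1 was exposed to compound at 10-fold excess over protein for 60 min at room temperature.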
As for `C=CC(=O)Nc1cc(OC)ccc1Nc1nc(Nc2ccc(N3CCC[C@@H]3CO)cc2C#N)ncc1Cl` [Compound I-181, (R)—N-(2-((5-chloro-2-((2-cyano-4-(2-(hydroxymethyl)pyrrolidin-1-yl)phenyl)amino)pyrimidin-4-yl)amino)-5-methoxyphenyl)acrylamide], the “ERK1 Mass Mod (%)” value is listed as “E (provided a mass modification of ≧70%)”.

In the case of `C=CC(=O)Nc1cc(OC)ccc1Nc1nc(Nc2ccc(N(CC)C(C)=O)cc2C#N)ncc1Cl` [Compound I-164, N-(2-((5-chloro-2-((2-cyano-4-(N-ethylacetamido)phenyl)amino)pyrimidin-4-yl)amino)-5-methoxyphenyl)acrylamide], the “ERK1 Mass Mod (%)” value is reported as “E (provided a mass modification of ≧70%)”.

As to `C=CC(=O)Nc1ccccc1Nc1nc(N[C@H]2CCCN(C(=O)[C@@H](O)CO)C2)ncc1C(F)(F)F` [Compound I-50, N-(2-((2-(((S)-1-((S)-2,3-Dihydroxypropanoyl)piperidin-3-yl)amino)-5-(trifluoromethyl)pyrimidin-4-yl)amino)phenyl)acrylamide], the “ERK1 Mass Mod (%)” value was “E (provided a mass modification of ≧70%)”.

On to `C=CC(=O)N[C@@H]1CCCC[C@H]1Oc1nc(Nc2cc(C(N)=O)ccc2C)ncc1C(N)=O` (racemic) [Compound I-268, Rac-trans-4-((2-acrylamidocyclohexyl)oxy)-2-((5-carbamoyl-2-methylphenyl)amino)pyrimidine-5-carboxamide], for which the “ERK1 Mass Mod (%)” value is listed as “G (proived a mass modification ≦30%)”.

On to `C=CC(=O)Nc1ccccc1Nc1nc(N[C@H]2CCCN(C(=O)C(C)(C)O)C2)ncc1Cl` [Compound I-135, (S)—N-(2-((5-chloro-2-((1-(2-hydroxy-2-methylpropanoyl)piperidin-3-yl)amino)pyrimidin-4-yl)amino)phenyl)acrylamide], for which the “ERK1 Mass Mod (%)” value was “E (provided a mass modification of ≧70%)”.

In the case of `C=CC(=O)Nc1ccccc1Nc1nc(Nc2ccc3c(c2OC)CCCC(=O)N3CCN2CCOCC2)ncc1C(N)=O` [Compound I-252, 4-((2-acrylamidophenyl)amino)-2-((6-methoxy-1-(2-morpholinoethyl)-2-oxo-2,3,4,5-tetrahydro-1H-benzo[b]azepin-7-yl)amino)pyrimidine-5-carboxamide], the “ERK1 Mass Mod (%)” value is on record as “F (provided a mass modification of 31-69%)”.

In the case of `C=CC(=O)Nc1ccccc1Nc1nc(Nc2ccc(NC(=O)CO)cc2OC)ncc1Cl` [Compound I-186, N-(2-((5-chloro-2-((4-(2-hydroxyacetamido)-2-methoxyphenyl)amino)pyrimidin-4-yl)amino)phenyl)acrylamide], the “ERK1 Mass Mod (%)” value is listed as “E (provided a mass modification of ≧70%)”.

For `C=C(C)C(=O)Nc1cc(F)ccc1Nc1nc(N[C@@H]2CCC[C@H](C(N)=O)C2)ncc1Cl` (racemic) [Compound I-114, Rac-cis-3-((5-chloro-4-((4-fluoro-2-methacrylamidophenyl)amino)pyrimidin-2-yl)amino)cyclohexanecarboxamide], the “ERK1 Mass Mod (%)” value was “F (provided a mass modification of 31-69%)”.

On to `C=CC(=O)N[C@@H]1CCCC[C@H]1Nc1nc(Nc2cc(C(=O)NOCCO)ccc2C)ncc1C(N)=O` (racemic) [Compound I-257, Rac-trans-4-((2-acrylamidocyclohexyl)amino)-2-((5-((2-hydroxyethoxy)carbamoyl)-2-methylphenyl)amino)pyrimidine-5-carboxamide], for which the “ERK1 Mass Mod (%)” value is listed as “G (proived a mass modification ≦30%)”.

For the compound `C=CC(=O)Nc1ccccc1Nc1nc(Nc2ccc(N3CCOCC3)cc2OC)ncc1C#N` [Compound I-143, N-(2-((5-cyano-2-((2-methoxy-4-morpholinophenyl)amino)pyrimidin-4-yl)amino)phenyl)acrylamide], the “ERK1 Mass Mod (%)” value was “F (provided a mass modification of 31-69%)”.

For `C=CC(=O)Nc1ccccc1Nc1nc(N[C@H]2CCN(C(C)=O)C2)ncc1C(F)(F)F` [Compound I-56, (S)—N-(2-((2-((1-Acetylpyrrolidin-3-yl)amino)-5-(trifluoromethyl)pyrimidin-4-yl)amino)phenyl)acrylamide], the “ERK1 Mass Mod (%)” value was “F (provided a mass modification of 31-69%)”.

Take `C=CC(=O)Nc1ccccc1Nc1nc(Nc2cc(C(N)=O)c(OCCCNC(=O)CCCC(=O)NCCCOCCOCCOCCCNC(=O)CCCC[C@@H]3SC[C@@H]4NC(=O)N[C@@H]43)cc2C)ncc1Cl` [Compound I-299, N^1-(3-(4-((4-((2-acrylamidophenyl)amino)-5-chloropyrimidin-2-yl)amino)-2-carbamoyl-5-methylphenoxy)propyl)-N^5-(15-oxo-19-((3aS,4S,6aR)-2-oxohexahydro-1H-thieno[3,4-d]imidazol-4-yl)-4,7,10-trioxa-14-azanonadecyl)glutaramide]: the “ERK1 Mass Mod (%)” value is listed as “E (provided a mass modification of ≧70%)”.

As for `C=CC(=O)Nc1ccccc1Nc1nc(Nc2cc(C(=O)NOC)ccc2C#N)ncc1C(F)(F)F` [Compound I-72, 3-((4-((2-Acrylamidophenyl)amino)-5-(trifluoromethyl)pyrimidin-2-yl)amino)-4-cyano-N-methoxybenzamide], the “ERK1 Mass Mod (%)” value is given as “E (provided a mass modification of ≧70%)”.

Consider `C=CC(=O)Nc1cc(C)ccc1Nc1nc(Nc2nc(OC)ncc2OC)ncc1C(F)(F)F` [Compound I-349, N-(2-((2-((2,5-dimethoxypyrimidin-4-yl)amino)-5-(trifluoromethyl)pyrimidin-4-yl)amino)-5-methylphenyl)acrylamide], for which the “ERK1 Mass Mod (%)” value is on record as “E (provided a mass modification of ≧70%)”.

As to `C=CC(=O)Nc1ccccc1Nc1nc(Nc2cc(C(=O)NOCCO)ccc2C#N)ncc1Cl` [Compound I-202, 3-((4-((2-acrylamidophenyl)amino)-5-chloropyrimidin-2-yl)amino)-4-cyano-N-(2-hydroxyethoxy)benzamide], the “ERK1 Mass Mod (%)” value is listed as “F (key: E: provided a mass modification of ≧70%; F: provided a mass modification of 31-69%; G: proived a mass modification ≦30%)”.

Consider `C=CC(=O)Nc1ccccc1Nc1nc(N[C@H]2CCC[C@@H](CO)C2)ncc1Cl` (racemic) [Compound I-121, Rac-cis-N-(2-((5-chloro-2-((3-(hydroxymethyl)cyclohexyl)amino)pyrimidin-4-yl)amino)phenyl)acrylamide], for which the “ERK1 Mass Mod (%)” value is “E (key: E: provided a mass modification of ≧70%; F: provided a mass modification of 31-69%; G: proived a mass modification ≦30%)”.

Turning to `C=CC(=O)Nc1ccccc1Nc1nc(Nc2cc(OC)nc(N3CCCCC3)c2)ncc1C(F)(F)F` [Compound I-282, N-(2-((2-((2-Methoxy-6-(piperidin-1-yl)pyridin-4-yl)amino)-5-(trifluoromethyl)pyrimidin-4-yl)amino)phenyl)acrylamide], the “ERK1 Mass Mod (%)” value was “E (provided a mass modification of ≧70%)”.

Take `C=CC(=O)Nc1ccccc1Nc1nc(NC2CCC(F)(F)CC2)ncc1Cl` [Compound I-127, N-(2-((5-chloro-2-((4,4-difluorocyclohexyl)amino)pyrimidin-4-yl)amino)phenyl) acrylamide]: the “ERK1 Mass Mod (%)” value is “E (provided a mass modification of ≧70%)”.

Take `C=CC(=O)Nc1cc(C)ccc1Nc1nc(Nc2ccnc(Cl)c2)ncc1Cl` [Compound I-230, N-(2-((5-chloro-2-((2-chloropyridin-4-yl)amino)pyrimidin-4-yl)amino)-5-methylphenyl)acrylamide]: the “ERK1 Mass Mod (%)” value is on record as “E (provided a mass modification of ≧70%)”.

`C=CC(=O)Nc1cc(C)c(F)cc1Nc1nc(Nc2cc(OC)ncc2C)ncc1C(F)(F)F` [Compound I-366, N-(4-fluoro-2-((2-((2-methoxy-5-methylpyridin-4-yl)amino)-5-(trifluoromethyl)pyrimidin-4-yl)amino)-5-methylphenyl)acrylamide]: the “ERK1 Mass Mod (%)” value is “E (provided a mass modification of ≧70%)”.

As for `C=CC(=O)Nc1ccccc1Nc1nc(Nc2ccc(OCCCN3CCOCC3)cc2OC)ncc1C(N)=O` [Compound I-254, 4-((2-acrylamidophenyl)amino)-2-((2-methoxy-4-(3-morpholinopropoxy)phenyl)amino)pyrimidine-5-carboxamide], the “ERK1 Mass Mod (%)” value was “E (provided a mass modification of ≧70%)”.

In the case of `C=CC(=O)Nc1cc(C)ccc1Nc1nc(Nc2cc(OC)nc(N(C)C3CC3)c2)ncc1C(F)(F)F` [Compound I-342, N-(2-((2-((2-(cyclopropyl(methyl)amino)-6-methoxypyridin-4-yl)amino)-5-(trifluoromethyl)pyrimidin-4-yl)amino)-5-methylphenyl)acrylamide], the “ERK1 Mass Mod (%)” value is reported as “E (provided a mass modification of ≧70%)”.

In the case of `C=CC(=O)Nc1ccccc1Nc1nc(Nc2ccc3c(c2OC)CCCC(=O)N3CCN2CCOCC2)ncc1Cl` [Compound I-145, N-(2-((5-chloro-2-((6-methoxy-1-(2-morpholinoethyl)-2-oxo-2,3,4,5-tetrahydro-1H-benzo[b]azepin-7-yl)amino)pyrimidin-4-yl)amino)phenyl)acrylamide], the “ERK1 Mass Mod (%)” value is “E (provided a mass modification of ≧70%)”.

With `C=CC(=O)N[C@@H]1CCCC[C@H]1Oc1nc(Nc2cc(C(N)=O)ccc2C)ncc1Cl` (racemic) [Compound I-270, Rac-trans-3-((4-((2-acrylamidocyclohexyl)oxy)-5-chloropyrimidin-2-yl)amino)-4-methylbenzamide], the “ERK1 Mass Mod (%)” value was “G (proived a mass modification ≦30%)”.

Regarding `C=CC(=O)Nc1cc(C)ccc1Nc1nc(Nc2cc(NCCOC)nc(OC)c2)ncc1C(F)(F)F` [Compound I-294, N-(2-((2-((2-methoxy-6-((2-methoxyethyl)amino)pyridin-4-yl)amino)-5-(trifluoromethyl)pyrimidin-4-yl)amino)-5-methylphenyl)acrylamide], the “ERK1 Mass Mod (%)” value was “E (key: E: provided a mass modification of ≧70%; F: provided a mass modification of 31-69%; G: proived a mass modification ≦30%)”.

Consider `C=CC(=O)Nc1cc(C)ccc1Nc1nc(Nc2cc(OC)nc(N3CCN(C)CC3)c2)ncc1C(F)(F)F` [Compound I-325, N-(2-((2-((2-methoxy-6-(4-methylpiperazin-1-yl)pyridin-4-yl)amino)-5-(trifluoromethyl)pyrimidin-4-yl)amino)-5-methylphenyl)acrylamide], for which the “ERK1 Mass Mod (%)” value is on record as “E (provided a mass modification of ≧70%)”.
